Experiments:
[1] = molecular target: Recombinant human JAK2 kinase domain protein (Residues 812-1132) (Homo sapiens, UniProt O60674); test: JAK2 biochemical assay (LabChip mobility shift, Ki); conditions: Biochem JAK2 Ki
[2] = molecular target: T1, recombinant human JAK1 kinase domain protein (Residues 854-1154) (Homo sapiens, UniProt P23458); test: JAK1 biochemical assay (LabChip mobility shift, Ki); conditions: read-out: Biochem JAK1 Ki
T1 construct: human JAK1 kinase domain protein (Residues 854-1154); purchased Proteros Biostructures GmbH (Martinsried, Germany); host or cells: insect cells
T1 sequence (P23458 854-1154): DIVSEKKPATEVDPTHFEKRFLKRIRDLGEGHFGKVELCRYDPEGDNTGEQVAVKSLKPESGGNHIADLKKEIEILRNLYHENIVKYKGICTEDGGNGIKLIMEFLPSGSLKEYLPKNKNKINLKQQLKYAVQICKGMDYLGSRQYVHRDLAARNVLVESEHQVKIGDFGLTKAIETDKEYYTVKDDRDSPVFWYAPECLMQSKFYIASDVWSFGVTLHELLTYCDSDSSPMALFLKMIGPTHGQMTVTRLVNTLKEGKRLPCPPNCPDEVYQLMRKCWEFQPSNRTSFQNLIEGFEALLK

[3] = system: IL-13-stimulated STAT6 phosphorylation in human lung bronchial epithelial BEAS-2B cell line; test: P-STAT6 BEAS-2B + IL-13 cell assay; type: cell-based; conditions: Homo sapiens, BEAS-2B, BEAS2B cells, IL13 stimulation; read-out: Cellular JAK1 PSTAT6 BEAS2B + IL13
How it was run: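 Phospho-STAT6 (Tyr641) was quantified in lysates by MSD electrochemiluminescence after human IL-13 challenge (250 ng/mL stock, 15 min, 37 °C). Before that, BEAS-2B cells cultured 48 h had 1 h compound exposure over 10 concentrations. Percent of control was fitted to a four-parameter logistic model to give IC50.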

Sequence of Recombinant human JAK2 kinase domain protein (Residues 812-1132) (O60674 812-1132): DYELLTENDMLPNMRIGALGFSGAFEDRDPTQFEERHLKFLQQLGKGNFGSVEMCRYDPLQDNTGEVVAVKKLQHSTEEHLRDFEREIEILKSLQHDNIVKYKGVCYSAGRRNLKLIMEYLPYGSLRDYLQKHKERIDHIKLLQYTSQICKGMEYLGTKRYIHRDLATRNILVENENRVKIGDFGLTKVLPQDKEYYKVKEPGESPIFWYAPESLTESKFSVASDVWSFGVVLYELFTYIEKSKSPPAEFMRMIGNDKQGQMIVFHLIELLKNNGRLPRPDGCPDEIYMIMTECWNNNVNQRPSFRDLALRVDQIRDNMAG

| SMILES | Ki [1] | Ki [2] | IC50 [3] |
| --- | --- | --- | --- |
| O=C(Nc1c[nH]nc1-c1cc(Oc2cccc(CNCCO)c2)ccc1OC(F)F)c1cnn2cccnc12 [Example 16, N-[3-[2-(difluoromethoxy)-5-[3-[(2-hydroxyethylamino)methyl]phenoxy]phenyl]-1H-pyrazol-4-yl]pyrazolo[1,5-a]pyrimidine-3-carboxamide] | 190 pM | 220 pM | 170000 pM |
| Cn1cc(NC(=O)c2cnn3cccnc23)c(-c2cc(Oc3cccc(CN4CCOC[C@@H]4CO)c3)ccc2OC(F)F)n1 (racemic) [Example 93, N-[3-[2-(difluoromethoxy)-5-[3-[[rac-(3R)-3-(hydroxymethyl)morpholin-4-yl]methyl]phenoxy]phenyl]-1-methyl-pyrazol-4-yl]pyrazolo[1,5-a]pyrimidine-3-carboxamide] | 650 pM | 1200 pM | 89000 pM |
| CN(CC(=O)N(C)C)Cc1cccc(Oc2ccc(OC(F)F)c(-c3nn(C)cc3NC(=O)c3cnn4cccnc34)c2)c1 [Example 60] | 750 pM | 810 pM | 35000 pM |
| Cc1ccc(Oc2ccc(OC(F)F)c(-c3nn(CCN[C@H]4CCOC4)cc3NC(=O)c3cnn4cccnc34)c2)cc1C(=O)N(C)C (racemic) [Example 58, N-[3-[2-(difluoromethoxy)-5-[3-(dimethylcarbamoyl)-4-methyl-phenoxy]phenyl]-1-[2-[[rac-(3R)-tetrahydrofuran-3-yl]amino]ethyl]pyrazol-4-yl]pyrazolo[1,5-a]pyrimidine-3-carboxamide] | 700 pM | 1200 pM | 33000 pM |
| CN1CCN(C(=O)Cn2cc(Oc3ccc(OC(F)F)c(-c4nn(C)cc4NC(=O)c4cnn5cccnc45)c3)cn2)CC1 [Example 90, N-[3-[2-(difluoromethoxy)-5-[1-[2-(4-methylpiperazin-1-yl)-2-oxo-ethyl]pyrazol-4-yl]oxy-phenyl]-1-methyl-pyrazol-4-yl]pyrazolo[1,5-a]pyrimidine-3-carboxamide] | 310 pM | 590 pM | 52000 pM |
| N#CCc1cccc(Oc2ccc(OC(F)F)c(-c3n[nH]cc3NC(=O)c3cnn4cccnc34)c2)c1 [Example 12, N-[3-[5-[3-(cyanomethyl)phenoxy]-2-(difluoromethoxy)phenyl]-1H-pyrazol-4-yl]pyrazolo[1,5-a]pyrimidine-3-carboxamide] | 210 pM | 210 pM | 18000 pM |
| CC(=O)c1cc(Oc2ccc(OC(F)F)c(-c3n[nH]cc3NC(=O)c3cnn4cccnc34)c2)ccc1C [Example 44, N-[3-[5-(3-acetyl-4-methyl-phenoxy)-2-(difluoromethoxy)phenyl]-1H-pyrazol-4-yl]pyrazolo[1,5-a]pyrimidine-3-carboxamide] | 240 pM | 450 pM | 5700 pM |
| Cc1ccc(Oc2ccc(OC(F)F)c(-c3n[nH]cc3NC(=O)c3cnn4cccnc34)c2)cc1 [Example 25, N-[3-[2-(difluoromethoxy)-5-(4-methylphenoxy)phenyl]-1H-pyrazol-4-yl]pyrazolo[1,5-a]pyrimidine-3-carboxamide] | 140 pM | 390 pM | 11000 pM |
| O=C(Nc1c[nH]nc1-c1cc(Oc2ccc3c(c2)CNCC3)ccc1OC(F)F)c1cnn2cccnc12 [Example 18, N-[3-[2-(difluoromethoxy)-5-(1,2,3,4-tetrahydroisoquinolin-7-yloxy)phenyl]-1H-pyrazol-4-yl]pyrazolo[1,5-a]pyrimidine-3-carboxamide] | 170 pM | 170 pM | 32000 pM |
| CN(C)C(=O)c1cccc(Oc2ccc(OC(F)F)c(-c3nn(C)cc3NC(=O)c3cnn4cccnc34)c2)c1 [Example 62, N-[3-[2-(difluoromethoxy)-5-[3-(dimethylcarbamoyl)phenoxy]phenyl]-1-methyl-pyrazol-4-yl]pyrazolo[1,5-a]pyrimidine-3-carboxamide] | 240 pM | 350 pM | 14000 pM |

Now from value to compound, other results behind:

| Ki [1] | Ki [2] | SMILES | IC50 [3] |
| --- | --- | --- | --- |
| 210 pM | 330 pM | CN1CC[C@@H](O)[C@H](n2cc(Oc3ccc(OC(F)F)c(-c4nn(C)cc4NC(=O)c4cnn5cccnc45)c3)cn2)C1 (stereo in doubt) [Example 185, N-[3-[2-(difluoromethoxy)-5-[1-[rac-(3R,4R)-4-hydroxy-l-methyl-3-piperidyl]pyrazol-4-yl]oxy-phenyl]-1-methyl-pyrazol-4-yl]pyrazolo[1,5-a]pyrimidine-3-carboxamide] | 62000 pM |
| 1900 pM | 2600 pM | CN1CCC(n2cc(Oc3ccc(OC(F)F)c(-c4nn(C)cc4NC(=O)c4cnn5cccnc45)c3)cn2)C1 (racemic) [Example 140, N-[3-[2-(difluoromethoxy)-5-[1-[rac-(3S)-1-methylpyrrolidin-3-yl]pyrazol-4-yl]oxy-phenyl]-1-methyl-pyrazol-4-yl]pyrazolo[1,5-a]pyrimidine-3-carboxamide] | 44000 pM |
| 2800 pM | 870 pM | CN1CC(O)(c2cccc(Oc3ccc(OC(F)F)c(-c4nn(C5CCOCC5)cc4NC(=O)c4cnn5cccnc45)c3)c2)C1 [Example 98, N-[3-[2-(difluoromethoxy)-5-[3-(3-hydroxy-l-methyl-azetidin-3-yl)phenoxy]phenyl]-1-tetrahydropyran-4-yl-pyrazol-4-yl]pyrazolo[1,5-a]pyrimidine-3-carboxamide] | 61000 pM |
| 600 pM | 850 pM | CN1CC(O)(c2cccc(Oc3ccc(OC(F)F)c(-c4nn(CCO)cc4NC(=O)c4cnn5cccnc45)c3)c2)C1 [Example 97, N-[3-[2-(difluoromethoxy)-5[3-(3-hydroxy-1-methyl-azetidin-3-yl)phenoxy]phenyl]-1-(2-hydroxyethyl)pyrazol-4-yl]pyrazolo[1,5-a]pyrimidine-3-carboxamide] | 300000 pM |
| 950 pM | 1100 pM | CN(C)[C@H]1CCN(C(=O)c2cccc(Oc3ccc(OC(F)F)c(-c4nn(C)cc4NC(=O)c4cnn5cccnc45)c3)c2)C1 (racemic) [Example 210, N-[3-[2-(difluoromethoxy)-5-[3-[rac-(3R)-3-(dimethylamino)pyrrolidine-1-carbonyl]phenoxy]phenyl]-1-methyl-pyrazol-4-yl]pyrazolo[1,5-a]pyrimidine-3-carboxamide] | 50000 pM |
| 480 pM | 960 pM | CC(C)N1CCC(O)(Cn2cc(Oc3ccc(OC(F)F)c(-c4nn(C)cc4NC(=O)c4cnn5cccnc45)c3)cn2)CC1 [Example 209, N-[3-[2-(difluoromethoxy)-5-[1-[(4-hydroxy-1-isopropyl-4-piperidyl)methyl]pyrazol-4-yl]oxy-phenyl]-1-methyl-pyrazol-4-yl]pyrazolo[1,5-a]pyrimidine-3-carboxamide] | 190000 pM |
| 430 pM | 650 pM | Cn1cc(NC(=O)c2cnn3cccnc23)c(-c2cc(Oc3cnn(C4CCNCC4O)c3)ccc2OC(F)F)n1 (stereo not drawn) [Example 182, N-[3-[2-(difluoromethoxy)-5-[1-(3-hydroxy-4-piperidyl)pyrazol-4-yl]oxy-phenyl]-1-methyl-pyrazol-4-yl]pyrazolo[1,5-a]pyrimidine-3-carboxamide] | 160000 pM |
| 460 pM | 380 pM | CCn1cc(NC(=O)c2cnn3cccnc23)c(-c2cc(Oc3cccc(C4(O)CNC4)c3)ccc2OC(F)F)n1 [Example 112, N-[3-[2-(difluoromethoxy)-5-[3-(3-hydroxyazetidin-3-yl)phenoxy]phenyl]-1-ethyl-pyrazol-4-yl]pyrazolo[1,5-a]pyrimidine-3-carboxamide] | 110000 pM |
| 300 pM | 310 pM | Cc1c(Oc2ccc(OC(F)F)c(-c3nn(C)cc3NC(=O)c3cnn4cccnc34)c2)cnn1C [Example 152, N-[3-[2-(difluoromethoxy)-5-(1,5-dimethylpyrazol-4-yl)oxy-phenyl]-1-methyl-pyrazol-4-yl]pyrazol[1,5-a]pyrimidine-3-carboxamide] | 20000 pM |
| 430 pM | 440 pM | Cc1cc(Oc2ccc(OC(F)F)c(-c3nn(C)cc3NC(=O)c3cnn4cccnc34)c2)cc(C2(O)CN(C)C2)c1 [Example 102, N-[3-[2-(difluoromethoxy)-5-[3-(3-hydroxy-1-methyl-azetidin-3-yl)-5-methyl-phenoxy]phenyl]-1-methyl-pyrazol-4-yl]pyrazolo[1,5-a]pyrimidine-3-carboxamide] | 24000 pM |
| 340 pM | 1900 pM | Cn1cc(NC(=O)c2cnn3cccnc23)c(-c2cc(Oc3ccc(CN4CCCCC4CO)cc3)ccc2OC(F)F)n1 (racemic) [Example 167, N-[3-[2-(difluoromethoxy)-5-[4-[[rac-(2S)-2-(hydroxymethyl)-1-piperidyl]methyl]phenoxy]phenyl]-1-methyl-pyrazol-4-yl]pyrazolo[1,5-a]pyrimidine-3-carboxamide] | 26000 pM |
| 370 pM | 1500 pM | Cn1cc(NC(=O)c2cnn3cccnc23)c(-c2cc(Oc3ccc(CN4CCC[C@@H](O)C4)cc3)ccc2OC(F)F)n1 (racemic) [Example 163, N-[3-[2-(difluoromethoxy)-5-[4-[[rac-(3R)-3-hydroxy-1-piperidyl]methyl]phenoxy]phenyl]-1-methyl-pyrazol-4-yl]pyrazolo[1,5-a]pyrimidine-3-carboxamide] | 21000 pM |
| 750 pM | 730 pM | CN1CC(O)(c2cc(Oc3ccc(OC(F)F)c(-c4nn(C)cc4NC(=O)c4cnn5cccnc45)c3)ccc2F)C1 [Example 104, N-[3-[2-(difluoromethoxy)-5-[4-fluoro-3-(3-hydroxy-1-methyl-azetidin-3-yl)phenoxy]phenyl]-1-methyl-pyrazol-4-yl]pyrazolo[1,5-a]pyrimidine-3-carboxamide] | 45000 pM |

— patent US12528812B2 (Genentech, Inc., priority 2020, dated 2026)
